Like-named read-outs stand apart in the source and are kept apart here.
Key:
[1] = biological target: α-chymotrypsin from bovine pancreas (Bos taurus, UniProt P00766); assay: chymotrypsin inhibition assay; format: biochemical; design: key to Enzyme Inhibition Chymotrypsin (activity class): - not active; */** small/medium activity; */** small/medium activity; settings: for Enzyme Inhibition Chymotrypsin (activity class): class symbols
[2] = biological target: T1, trypsin from porcine pancreas (Sus scrofa, UniProt P00761); assay: trypsin inhibition assay; format: biochemical; design: key: - not active; */** small/medium activity; */** small/medium activity; settings: class symbols
T1 construct: purchased Sigma-Aldrich T0303; host or cells: porcine pancreas
T1 sequence (P00761 9-231): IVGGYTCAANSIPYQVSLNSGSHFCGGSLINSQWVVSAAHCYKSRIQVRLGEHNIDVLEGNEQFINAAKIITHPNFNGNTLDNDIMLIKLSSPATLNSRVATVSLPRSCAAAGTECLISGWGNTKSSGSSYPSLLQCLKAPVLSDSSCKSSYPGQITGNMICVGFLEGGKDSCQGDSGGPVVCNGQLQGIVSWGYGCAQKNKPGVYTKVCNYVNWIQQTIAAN

[3] = biological target: T2, Thrombin (Bos taurus, UniProt P00735); assay: thrombin inhibition assay; format: biochemical; design: key: - not active; */** small/medium activity; */** small/medium activity; settings: highest concentration 45.4 μg/mL
T2 construct: purchased Sigma-Aldrich T4648

[4] = biological target: T3, protein phosphatase 1 (PP1) (Oryctolagus cuniculus, UniProt P62139); assay: protein phosphatase 1 inhibition assay; format: biochemical; design: key: - not active; */** small/medium activity; */** small/medium activity; settings: highest concentration 45.4 μg/mL
T3 construct: purchased England Biolabs, Hitchin, UK (New England Biolabs) 754S
T3 sequence (P62139 whole entry): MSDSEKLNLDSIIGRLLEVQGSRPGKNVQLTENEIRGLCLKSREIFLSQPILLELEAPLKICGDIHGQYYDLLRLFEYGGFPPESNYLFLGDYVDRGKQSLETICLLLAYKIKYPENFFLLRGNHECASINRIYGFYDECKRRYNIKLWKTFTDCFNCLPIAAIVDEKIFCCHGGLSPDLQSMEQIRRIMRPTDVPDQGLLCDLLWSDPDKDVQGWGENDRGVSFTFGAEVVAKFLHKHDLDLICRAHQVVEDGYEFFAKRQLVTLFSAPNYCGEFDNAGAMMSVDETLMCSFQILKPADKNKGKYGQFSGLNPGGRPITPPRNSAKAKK

[5] = biological target: human leukocyte elastase (HLE); design: method as in PMID 18924217; settings: activity of extracts; read-out: Enzyme Inhibition HLE IC50; cited from earlier work
[6] = biological target: T4, elastase from porcine pancreas (Sus scrofa, UniProt P00772); assay: elastase inhibition assay; format: biochemical; design: key: - not active; */** small/medium activity; */** small/medium activity; settings: highest concentration 45.4 μg/mL
T4 construct: purchased Sigma-Aldrich E0258; host or cells: porcine pancreas
T4 sequence (P00772 27-266): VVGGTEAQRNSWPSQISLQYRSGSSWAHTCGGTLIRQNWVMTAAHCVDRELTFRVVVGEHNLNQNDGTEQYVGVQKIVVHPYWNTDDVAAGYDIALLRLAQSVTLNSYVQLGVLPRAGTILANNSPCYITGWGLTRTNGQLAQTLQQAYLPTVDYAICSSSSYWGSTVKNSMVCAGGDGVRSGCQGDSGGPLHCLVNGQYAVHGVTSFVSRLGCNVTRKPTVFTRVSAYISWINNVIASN

[7] = tested on: Chymotrypsin; settings: cited from earlier work
[8] = tested on: small crustaceans; design: method as in doi:10.2216/i0031-8884-35-6S-111.1, PMID 20405925, PMID 12662108; settings: cited from earlier work
[9] = tested on: mice; settings: administered intraperitoneally at concentrations up to 1000 µg/kg b.w.; cited from earlier work
[10] = tested on: MCF-7 breast cancer cells; assay: MTT cytotoxicity assay; format: cell-based; settings: 24-h exposure, 0 to 500 μg/mL
Protocol: For the test, two CPs were selected: Arg^2-containing CP962 and Tyr^2-containing CP985. MCF-7 breast cancer cells were seeded at 7.5 × 10^3 cells/100 μL in a 96-well plates and incubated at 37 °C, 5% CO2 for 24 h. The cells were then treated for a further 24 h with CP962 and CP985 (0 to 500 μg/mL). After 24 h, sterile-filtered 3-(4,5-dimethylthiazol-2-yl)-2,5-diphenyltetrazolium bromide solution (MTT; 1 mg/mL) was added to each well. After 4 h incubation at 37 °C in the dark, the MTT solution was removed and formazan crystals solubilized in DMSO. The plates were shaken for 20 min, in the dark, at room temperature and absorbance was measured at 560 nm (Synergy/HT, BIOTEK, Wnooski, VT, USA). For each CP, three independent experiments were carried out and each treatment consisted of six replicates per plate. Bar charts were used to represent the viability of MCF-7 cells treated with CP962 and CP985, compared to the control (i.e., untreated cells) that represented 100% cell viability.

| Compound | Enzyme Inhibition Chymotrypsin (activity class) [1] | Enzyme Inhibition Trypsin (activity class) [2] | Enzyme Inhibition Thrombin (activity class) [3] | Enzyme Inhibition Protein Phosphatase 1 (activity class) [4] | IC50 [5] | Enzyme Inhibition Elastase (activity class) [6] | other results |
| --- | --- | --- | --- | --- | --- | --- | --- |
| CCCC(=O)N[C@@H](CC(=O)O)C(=O)N[C@@H]1C(=O)N[C@@H](Cc2ccc(O)cc2)C(=O)N[C@H]2CC[C@@H](O)N(C2=O)[C@@H](Cc2ccccc2)C(=O)N(C)[C@@H](CCc2ccc(O)cc2)C(=O)N[C@@H](C(C)C)C(=O)O[C@@H]1C [CP 999, [Thr+Tyr+Ahp+Phe+MeHty+Val]Asp+BA] | ** | - | - | - |  |  |  |
| [Thr+Hph+Ahp+Thr+MeTyr+Val]Ser+Pro+BA [Insulapeptolide F] |  |  |  |  | 1600 nM |  |  |
| CCCCCC(=O)N[C@@H](CC(=O)O)C(=O)N[C@@H]1C(=O)N[C@@H](Cc2ccc(O)cc2)C(=O)N[C@H]2CC[C@@H](O)N(C2=O)[C@@H](Cc2ccccc2)C(=O)N(C)[C@@H](Cc2ccc(O)cc2)C(=O)N[C@@H](C(C)C)C(=O)O[C@@H]1C [CP 1013, [Thr+Tyr+Ahp+Phe+MeTyr+Val]Asp+HA] | ** | - | - | - |  | - |  |
| CC[C@H](C)[C@@H]1NC(=O)[C@H](Cc2ccc(O)cc2)N(C)C(=O)[C@H](Cc2ccccc2)N2C(=O)[C@H](CC[C@H]2O)NC(=O)[C@H](Cc2ccccc2)NC(=O)[C@@H](NC(=O)[C@@H](O)COP(=O)(O)O)[C@@H](C)OC1=O [micropeptin T20] |  |  |  |  |  |  | IC50 ([7]; read-out: chymotrypsin IC50): 2.5 nM |
| CCCCCCCC(=O)N[C@@H](CC(=O)O)C(=O)N[C@@H]1C(=O)N[C@@H](CCCNC(=N)N)C(=O)N[C@H]2CC[C@@H](O)N(C2=O)[C@@H](Cc2ccccc2)C(=O)N(C)[C@@H](CCc2ccc(O)cc2)C(=O)N[C@@H](C(C)C)C(=O)O[C@@H]1C [CP 1048, [Thr+Arg+Ahp+Phe+MeHty+Val]Asp+OA] | * | ** | - | - |  | - |  |
| CCCCCC(=O)N[C@@H](CC(=O)O)C(=O)N[C@@H]1C(=O)N[C@@H](CCCNC(=N)N)C(=O)N[C@H]2CC[C@@H](O)N(C2=O)[C@@H](Cc2ccccc2)C(=O)N(C)[C@@H](Cc2ccccc2)C(=O)N[C@@H](C(C)C)C(=O)O[C@@H]1C [CP 990, [Thr+Arg+Ahp+Phe+MePhe+Val]Asp+HA] | - | ** | - | - |  | - |  |
| [Thr+Hph+Ahp+Thr+MeTyr+Ile]Ser+Pro+BA [Insulapeptolide H] |  |  |  |  | 2700 nM |  |  |
| Oscillapeptin J |  |  |  |  |  |  | acute effects in small crustaceans [8]: induced acute effects; harmful effects in mice [9]: did not induce any harmful effects |
| CCCC(=O)NC(CC(=O)O)C(=O)NC1C(=O)NC(CCCNC(=N)N)C(=O)NC2CCC(O)N(C2=O)C(Cc2ccccc2)C(=O)N(C)C(Cc2ccccc2)C(=O)NC(C(C)C)C(=O)OC1C (stereo not shown) [CP 962, [Thr+Arg+Ahp+Phe+MePhe+Val]Asp+BA] | - | ** | - | - |  | - | cytotoxic effects on MCF-7 cells (MTT) [10]: no cytotoxic effects |
| [Hmp+Leu+Ahp+Ile+MeTyr+Val]Cit+Ac [Insulapeptolide A] |  |  |  |  | 140 nM |  |  |
| [Thr+Hph+Ahp+Thr+MePhe+Val]Ser+Pro+BA [Insulapeptolide G] |  |  |  |  | 3500 nM |  |  |
| CCCCCC(=O)N[C@@H](CC(=O)O)C(=O)N[C@@H]1C(=O)N[C@@H](Cc2ccc(O)cc2)C(=O)N[C@H]2CC[C@@H](O)N(C2=O)[C@@H](Cc2ccccc2)C(=O)N(C)[C@@H](CCc2ccc(O)cc2)C(=O)N[C@@H](C(C)C)C(=O)O[C@@H]1C [CP 1027, [Thr+Tyr+Ahp+Phe+MeHty+Val]Asp+HA] |  | - | - | - |  | - |  |
| CCCC(=O)N[C@@H](CC(=O)O)C(=O)N[C@@H]1C(=O)N[C@@H](Cc2ccc(O)cc2)C(=O)N[C@H]2CC[C@@H](O)N(C2=O)[C@@H](Cc2ccccc2)C(=O)N(C)[C@@H](Cc2ccccc2)C(=O)N[C@@H](C(C)C)C(=O)O[C@@H]1C [CP 969, [Thr+Tyr+Ahp+Phe+MePhe+Val]Asp+BA] | ** | - | - | - |  | - |  |
| CCCC(=O)N[C@@H](CC(=O)O)C(=O)N[C@@H]1C(=O)N[C@@H](CCCNC(=N)N)C(=O)N[C@H]2CC[C@@H](O)N(C2=O)[C@@H](Cc2ccccc2)C(=O)N(C)[C@@H](CCc2ccc(O)cc2)C(=O)N[C@@H](C(C)C)C(=O)O[C@@H]1C [CP 992, [Thr+Arg+Ahp+Phe+MeHty+Val]Asp+BA] |  |  | - | - |  | - |  |
| CCCC(=O)NC(CC(=O)O)C(=O)NC1C(=O)NC(Cc2ccc(O)cc2)C(=O)NC2CCC(O)N(C2=O)C(Cc2ccccc2)C(=O)N(C)C(Cc2ccc(O)cc2)C(=O)NC(C(C)C)C(=O)OC1C (stereo not shown) [CP 985, [Thr+Tyr+Ahp+Phe+MeTyr+Val]Asp+BA] |  | - | - | - |  | - | IC50 ([1]; read-out: Enzyme Inhibition (IC50 [µM]) Chymotrypsin): 0.26 µM; cytotoxic effects on MCF-7 cells (MTT) [10]: no cytotoxic effects |
| [Hmp+Leu+Ahp+Leu+MeTyr+Ile]Cit+Ac [Insulapeptolide B] |  |  |  |  | 100 nM |  |  |
| CC[C@H](C)[C@H]1C(=O)N(C)[C@@H](Cc2ccc(OC)cc2)C(=O)N[C@@H](C(C)C)C(=O)O[C@@H]2[C@H](C)CN(C(=O)[C@H](CCCNC(N)=O)NC(C)=O)[C@@H]2C(=O)N[C@@H](CC(C)C)C(=O)N[C@H]2CC[C@@H](O)N1C2=O [Insulapeptolide C, [Hmp+Leu+Ahp+Ile+diMeTyr+Val]Cit+Ac] |  |  |  |  | 90 nM |  |  |
| [Hmp+Leu+Ahp+Ile+diMeTyr+Ile]Cit+Ac [Insulapeptolide D] |  |  |  |  | 85 nM |  |  |
| CCCC(=O)N[C@@H](CC(=O)O)C(=O)N[C@@H]1C(=O)N[C@@H](CCCNC(=N)N)C(=O)N[C@H]2CC[C@@H](O)N(C2=O)[C@@H](Cc2ccccc2)C(=O)N(C)[C@@H](Cc2ccc(O)cc2)C(=O)N[C@@H](C(C)C)C(=O)O[C@@H]1C [CP 978, [Thr+Arg+Ahp+Phe+MeTyr+Val]Asp+BA] |  |  | - | - |  | - |  |
| [Thr+Hph+Ahp+Thr+MeTyr+Ile]Ser+Pro+BA [Insulapeptolide E] |  |  |  |  | 3200 nM |  |  |
| CCCCCC(=O)N[C@@H](CC(=O)O)C(=O)N[C@@H]1C(=O)N[C@@H](CCCNC(=N)N)C(=O)N[C@H]2CC[C@@H](O)N(C2=O)[C@@H](Cc2ccccc2)C(=O)N(C)[C@@H](Cc2ccc(O)cc2)C(=O)N[C@@H](C(C)C)C(=O)O[C@@H]1C [CP 1006, [Thr+Arg+Ahp+Phe+MeTyr+Val]Asp+HA] | * | ** | - | - |  | - |  |
| CCCCCCCC(=O)N[C@@H](CC(=O)O)C(=O)N[C@@H]1C(=O)N[C@@H](CCCNC(=N)N)C(=O)N[C@H]2CC[C@@H](O)N(C2=O)[C@@H](Cc2ccccc2)C(=O)N(C)[C@@H](Cc2ccccc2)C(=O)N[C@@H](C(C)C)C(=O)O[C@@H]1C [CP 1018, [Thr+Arg+Ahp+Phe+MePhe+Val]Asp+OA] | - |  | - | - |  | - |  |
| CC(=O)N[C@@H](CCC(N)=O)C(=O)N[C@@H]1C(=O)N[C@@H](CC(C)C)C(=O)N[C@H]2CC[C@@H](O)N(C2=O)[C@@H](Cc2ccccc2)C(=O)N(C)[C@@H](Cc2ccc(O)cc2)C(=O)N[C@@H](C(C)C)C(=O)O[C@@H]1C [Nostopeptin BN920, [Thr+Leu+Ahp+Phe+MeTyr+Val]Gln+Ac] |  |  |  |  |  |  | IC50 ([7]; read-out: Enzyme Inhibition Chymotrypsin IC50): 110 nM |

— paper PMC6070996 (Marine Drugs, 2018)
